This note sets out measurements from publication PMC10744269, “Frentizole, a Nontoxic Immunosuppressive Drug, and Its Analogs Display Antitumor Activity via Tubulin Inhibition” (International Journal of Molecular Sciences, 2023).

Series [1] relates to U87 MG (human glioblastoma). The series is described as follows: MTT antiproliferative assay, U-87 MG. The class given is cell-based. To be noted: 72 h after drug treatment, threshold 10 μM. The procedure: (§1) The cell proliferation inhibitory activity of frentizole and the synthesized analogs 2–10 against representative human cancer cell lines was assayed using the MTT method (Table 1). […] For those compounds inhibiting cell proliferation by more than 40% with respect to the untreated controls at the threshold concentration, the IC50 values were calculated by measuring the proliferation inhibition in a range of concentrations from 100 to 0.001 μM and adjusting the resulting curves to sigmoidal dose–response curves. The selected cell lines were HeLa (cervix epithelioid carcinoma cells), one of the most frequent kinds of cancer, with good sensitivity against antimitotic agents, and the glioblastoma cell lines U87MG and A172. To study the selectivity of the compounds toward cancer cells versus nontumor cells, the compounds were also evaluated against the nontumorigenic cell line HEK-293 (human embryonic kidney cells) and the murine macrophage cell line J774. Sulfonamide ABT-751, as a representative of the colchicine-site ligands, and the first-line drug for the treatment of glioblastoma multiforme temozolomide (TMZ) were used as reference compounds.
(§2) The cell lines were from ATTC (Manassas, VA, USA). HeLa (human cervix epithelioid carcinoma), U87 MG (human glioblastoma), A172 (human glioblastoma), and HEK-293 (human embryonic kidney) were grown in Dulbecco’s modified Eagle’s medium (DMEM, Gibco, Waltham, MA, USA), supplemented with 10% (v/v) heat-inactivated fetal bovine serum (HIFBS, Sigma-Aldrich, St. Louis, MO, USA), 2 mM L-glutamine, 100 μg/mL streptomycin, and 100 units/mL penicillin (Gibco, Waltham, MA, USA) at 37 °C in humidified 95% air and 5% CO2. The cells were periodically tested for Mycoplasma infection using MycoAlert kit (Lonza, Norwest, Australia), and only mycoplasma-free cells were employed in the experiments.
(§3) The effect of the compounds on the proliferation of human tumor cell lines was determined as previously described using the MTT reagent 3-[4,5-dimethylthiazol-2-yl]-2,5-diphenyltetrazolium bromide, MTT Thiazolyl Blue Tetrazolium Bromide, Sigma-Aldrich, St. Louis, MO, USA) dissolved in PBS at 5 mg/mL, according to the manufacturer’s instructions. The cells were incubated in 96-well plates (100 μL/well), in complete DMEM or RPMI 1640 medium (see above), at 37 °C and 5% CO2 atmosphere for 24 h to allow for cell attachment to the plate at the following concentrations: 30,000 cells/mL (U87MG, A172, J774, and HEK-293 cells) or 15,000 cells/mL (HeLa cells). Then, every compound was added (10 μL/well) to a final concentration of 10 μM. Untreated cells were used as negative controls. The antiproliferative activity of the compounds was measured 72 h after drug exposure using the MTT assay. The IC50 value (the drug concentration required to inhibit 50% of the cell growth in respect the untreated control) was determined for those compounds showing antiproliferative effects in the initial screening at 10 μM. For this purpose, the compounds were used at different concentrations ranging from 10^−10 to […]. Measurements were performed in triplicate and each experiment was repeated three times. The IC50 values were determined using Origin software (OriginLab, Washington, DC, USA).

Series [2] has as its system nontumorigenic cell line HEK-293 (human embryonic kidney cells). The series is described as follows: MTT antiproliferative assay, HEK-293. To be noted: HEK293, 72 h after drug treatment, threshold 10 μM. The class given is cell-based. The method, then:
as §1, §2, §3

The test system of series [3] is HeLa (cervix epithelioid carcinoma cells). The series is described as follows: MTT antiproliferative assay, HeLa. The format is cell-based, human. To be noted: Homo sapiens, HeLa, 72 h after drug treatment, threshold 10 μM. The method, then:
as §1, §2, §3

Series [4] has as its system A172 (human glioblastoma). The series is described as follows: MTT antiproliferative assay, A-172. The class given is cell-based. Conditions: 72 h after drug treatment, threshold 10 μM. The procedure:
as §1, §2, §3

For series [5], the system named is murine macrophage cell line J774. The series is described as follows: MTT antiproliferative assay, J774. The class given is cell-based. Conditions: Mus musculus, 72 h after drug treatment, threshold 10 μM, read-out: IC50 J-774. The procedure:
as §1, §3

As for `Cc1cc(Br)c2c(c1)SC(NC(=O)Oc1ccccc1)N2C(=O)Oc1ccccc1` (stereo not drawn) [Compound 9b, Phenyl (4-bromo-6-methyl-N-phenoxycarbonylbenzo[d]thiazol-2-yl)carbamate], the melting point amounted to 100 °C.

In turn, `Cc1ccc2nc(NC(=O)OCc3ccccc3)sc2c1` [Compound 10a, Benzyl (6-methylbenzo[d]thiazol-2-yl)carbamate] registered a melting point of 254 to 255 °C. The compound further displayed an IC50 in series [1] above 10 µM. The IC50 in series [2] is above 10 µM. The compound also registered an IC50 in series [3] above 10 µM. This compound also returned an IC50 in series [4] above 10 µM.

On to `Cc1cc2nc(NC(=O)c3ccccc3)sc2cc1C` [Compound 3c, N-(5,6-dimethylbenzo[d]thiazol-2-yl)benzamide], for which the melting point worked out at 210 °C. In series [1], the IC50 was above 10 µM. Moreover, in series [2], half-maximal inhibition (IC50) required 5.68 µM. This compound also gave an IC50 in series [3] above 10 µM. Moreover, in series [5], the IC50 was 7.73 µM. In series [4], the half-maximal inhibitory concentration (IC50) is above 10 µM.

`Cc1ccc2nc(NC(=O)NCc3ccccc3)sc2c1` [Compound 7a, 1-Benzyl-3-(6-methylbenzo[d]thiazol-2-yl)urea]: the melting point was 283.4 to 285.7 °C. In series [1], this compound had an IC50 above 10 µM. Besides, the half-maximal inhibitory concentration (IC50) in series [2] is above 10 µM. Also, the IC50 in series [3] was above 10 µM. Besides, the IC50 in series [5] is above 10 µM. Moreover, the half-maximal inhibitory concentration (IC50) in series [4] was above 10 µM.

As for `Cc1cc(Br)c2nc(NC(=O)Nc3ccccc3)sc2c1` [Compound 6b], the IC50 in series [1], in series [2], in series [3], in series [5] and in series [4] was above 10 µM throughout.

`Cc1ccc2nc(NC(=O)Oc3ccccc3)sc2c1` [Compound 9a, Phenyl (6-methylbenzo[d]thiazol-2-yl)carbamate] registered a melting point of 251 to 253 °C. The same compound showed a 50% inhibitory concentration (IC50) in series [1] above 10 µM. The compound also yielded a concentration for half-maximal inhibition (IC50) in series [2] above 10 µM. Besides, the IC50 in series [3] is above 10 µM. In addition, the IC50 in series [5] was above 10 µM. In addition, the IC50 in series [4] was above 10 µM.

For `Cc1cc(Br)c2nc(NC(=O)OCc3ccccc3)sc2c1` [Compound 10b], the IC50 in series [1], in series [2], in series [3], in series [5] and in series [4] was above 10 µM throughout.

Regarding `COc1ccc2nc(NC(=O)c3ccccc3)sc2c1` [Compound 3e, N-(6-methoxybenzo[d]thiazol-2-yl)benzamide], the IC50 in series [1], in series [2], in series [3], in series [5] and in series [4] was above 10 µM in each case.

As to `CCOC(=O)Nc1nc2c(Br)cc(C)cc2s1` [Compound 8b, Ethyl (4-bromo-6-methylbenzo[d]thiazol-2-yl)carbamate], the melting point fell in the range of 177 to 178 °C. Besides, the 50% inhibitory concentration (IC50) in series [1] is above 10 µM. The compound further showed an IC50 in series [2] above 10 µM. For the same compound, the half-maximal inhibitory concentration (IC50) in series [3] is above 10 µM. Besides, the IC50 in series [5] is above 10 µM. The compound also had an IC50 in series [4] above 10 µM.

Consider `Cc1ccc2nc(NC(=O)c3ccccc3)sc2c1` [Compound 3a, N-(6-methylbenzo[d]thiazol-2-yl)benzamide], for which the melting point lay in the range of 222 to 224 °C. The compound also came in with an IC50 in series [1] above 10 µM. This compound had an IC50 in series [2] above 10 µM. For the same compound, the half-inhibitory concentration (IC50) in series [3] was above 10 µM. Besides, in series [5], the IC50 is above 10 µM. In series [4], this compound returned an IC50 above 10 µM.

`Cc1cc2nc(N(C)C(=O)c3ccccc3)sc2cc1C` [Compound 3ca, N-(5,6-dimethylbenzo[d]thiazol-2-yl)-N-methylbenzamide]: the melting point came out at 231 °C. The IC50 in series [1] is above 10 µM. This compound also gave a half-maximal inhibitory concentration (IC50) in series [2] above 10 µM. Moreover, the IC50 in series [3] was above 10 µM. Besides, the IC50 in series [5] is above 10 µM. The concentration for half-maximal inhibition (IC50) in series [4] is above 10 µM.

In turn, `CCOC(=O)Nc1nc2ccc(C)cc2s1` [Compound 8a, Ethyl (6-methylbenzo[d]thiazol-2-yl)carbamate] gave a melting point of 252.8 to 254 °C. Also, in series [1], the IC50 was above 10 µM. Besides, the half-inhibitory concentration (IC50) in series [2] was above 10 µM. For the same compound, in series [3], the IC50 is above 10 µM. Also, the concentration for half-maximal inhibition (IC50) in series [5] turned out to be 0.26 µM. The compound further registered a half-maximal inhibitory concentration (IC50) in series [4] above 10 µM.

With `COc1ccc2nc(N(C)C(=O)Nc3ccccc3)sc2c1` [Compound 6ea, 1-(6-Methoxybenzo[d]thiazol-2-yl)-1-methyl-3-phenylurea], the melting point is 189 °C. In series [1], this compound showed an IC50 above 10 µM. For the same compound, the IC50 in series [2] was above 10 µM. In addition, the IC50 in series [3] was above 10 µM. Further, in series [5], the IC50 is above 10 µM. In series [4], the half-inhibitory concentration (IC50) is above 10 µM.

For the compound `Cc1cc2nc(NC(=O)Nc3ccccc3)sc2cc1C` [Compound 6c, 1-(5,6-Dimethylbenzo[d]thiazol-2-yl)-3-phenylurea], the melting point was above 290 °C. Also, the half-inhibitory concentration (IC50) in series [1] was above 10 µM. Also, in series [2], the concentration for half-maximal inhibition (IC50) is above 10 µM. For the same compound, in series [3], the IC50 is above 10 µM. For the same compound, in series [5], the concentration for half-maximal inhibition (IC50) is 0.27 µM. The same compound yielded an IC50 in series [4] above 10 µM.

The compound `Cc1cc2nc(N(C)C(=O)Nc3ccccc3)sc2cc1C` [Compound 6ca, 1-(5,6-Dimethylbenzo[d]thiazol-2-yl)-1-methyl-3-phenylurea] gave a melting point of 179 °C. The compound further came in with an IC50 in series [1] above 10 µM. In series [2], the IC50 was above 10 µM. The same compound showed an IC50 in series [3] above 10 µM. The concentration for half-maximal inhibition (IC50) in series [5] is above 10 µM. This compound came in with an IC50 in series [4] above 10 µM.

`CCNC(=O)Nc1nc2ccc(OC)cc2s1` [Compound 5e, 1-Ethyl-3-(6-methoxybenzo[d]thiazol-2-yl)urea]: the IC50 in series [1], in series [2], in series [3], in series [5] and in series [4] was above 10 µM throughout.

Turning to `CCNC(=O)Nc1nc2cc(C)c(C)cc2s1` [Compound 5c, 1-(5,6-Dimethylbenzo[d]thiazol-2-yl)-3-ethylurea], the IC50 in series [1], in series [2], in series [3], in series [5] and in series [4] was above 10 µM in each case.

As to `Cc1cc(Br)c2nc(NC(=O)NCc3ccccc3)sc2c1` [Compound 7b, 1-Benzyl-3-(4-bromo-6-methylbenzo[d]thiazol-2-yl)urea], the IC50 in series [1], in series [2], in series [3], in series [5] and in series [4] was above 10 µM in each case.

Turning to `Cc1ccc2nc(NC(=O)Cc3ccccc3)sc2c1` [Compound 4a, N-(6-methylbenzo[d]thiazol-2-yl)-2-phenylacetamide], the melting point lay in the range of 190 to 191 °C. In series [1], this compound registered a concentration for half-maximal inhibition (IC50) above 10 µM. The same compound came in with an IC50 in series [2] above 10 µM. Also, the half-inhibitory concentration (IC50) in series [3] is above 10 µM. For the same compound, the 50% inhibitory concentration (IC50) in series [5] is above 10 µM. In series [4], the half-maximal inhibitory concentration (IC50) is above 10 µM.

In turn, `CCNC(=O)Nc1nc2ccc(C)cc2s1` [Compound 5a, 1-Ethyl-3-(6-methylbenzo[d]thiazol-2-yl)urea] registered a melting point of 312 to 313 °C. Further, in series [1], the 50% inhibitory concentration (IC50) is above 10 µM. In series [2], this compound gave a concentration for half-maximal inhibition (IC50) above 10 µM. The IC50 in series [3] was above 10 µM. Moreover, the 50% inhibitory concentration (IC50) in series [5] was above 10 µM. For the same compound, in series [4], the IC50 is above 10 µM.

Consider `Cc1ccc2nc(NC(=O)Nc3ccccc3)sc2c1` [Compound 6a, 1-(6-Methylbenzo[d]thiazol-2-yl)-3-phenylurea], for which the melting point is 327 to 329 °C. The IC50 in series [1] is above 10 µM. The compound further returned an IC50 in series [2] above 10 µM. The compound further gave a 50% inhibitory concentration (IC50) in series [3] above 10 µM. For the same compound, the IC50 in series [5] is 1.97 µM. The compound also registered an IC50 in series [4] above 10 µM.
